# Test results reported in ChEMBL document CHEMBL1201862, “PubChem BioAssay data set” (2004).
#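 Growth conditions: 96-well plates. Treatment: test compound, 48 hours, 5 concentrations. Analysis: linear interpolation between bracketing concentrations; unreached endpoints set to highest concentration. The concentration for 50% growth inhibition is given as GI50.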 Calls of active or inactive are those of the source. Cut-off read from the data, not from the text of the source: active = GI50 up to about 1.1 µM and inactive = higher.
# Assays:
# Assay in all cases: inhibition of tumour cell growth, NCI panel, 48 h
# [1] = system: MOLT-4
# [2] = system: HOP-92
# [3] = system: SF-295
# [4] = system: IGROV-1
# [5] = system: UO-31
# [6] = system: SF-539
# [7] = system: OVCAR-5
# [8] = system: TK-10
# [9] = system: HCT-116
# [10] = system: A498
# [11] = system: CAKI-1
# [12] = system: KM-20L2
# [13] = system: K562
# [14] = system: HCT-15
# [15] = system: XF498
# [16] = system: NCI-H460
# [17] = system: UACC-257
# [18] = system: HOP-62
# [19] = system: SK-MEL-28
# [20] = system: ACHN
# [21] = system: OVCAR-3
# [22] = system: SNB-78
# [23] = system: NCI-H226
# [24] = system: SK-MEL-5
# [25] = system: HCC 2998
# [26] = system: DLD-1
# [27] = system: 786-0
# [28] = system: SK-OV-3
# [29] = system: HT-29
# [30] = system: SNB-19
# [31] = system: OVCAR-4
# [32] = system: SK-MEL-2
# [33] = system: M14
# [34] = system: KM12
# [35] = system: LOX IMVI
# [36] = system: COLO 205
# [37] = system: M19-MEL
# [38] = system: EKVX
# [39] = system: DMS-114
# [40] = system: U-251
# [41] = system: SNB-75
# [42] = system: DMS-273
# [43] = system: CCRF-CEM
# [44] = system: LXFL 529
# [45] = system: NCI-H23
# [46] = system: NCI-H522
# [47] = system: A549
# [48] = system: OVCAR-8
# [49] = system: SR
# [50] = system: SW-620
# [51] = system: SN12C
# [52] = system: UACC-62
# [53] = system: SF-268
# [54] = system: HOP-18
# [55] = system: Malme-3M
# [56] = system: HL-60
# [57] = system: RXF 393
smiles,measurement,setting,value
Cc1cc(NS(=O)(=O)c2ccc(Nc3c4ccccc4nc4c(C(=O)N5CCN(CCO)CC5)cccc34)cc2)no1,GI50,[1],83.2 µM (inactive)
same,GI50,[2],> 100 µM (inactive)
same,GI50,[3],> 100 µM (inactive)
same,GI50,[4],> 100 µM (inactive)
same,GI50,[5],> 100 µM (inactive)
same,GI50,[6],> 100 µM (inactive)
same,GI50,[7],> 100 µM (inactive)
same,GI50,[8],> 100 µM (inactive)
same,GI50,[9],> 100 µM (inactive)
same,GI50,[10],> 100 µM (inactive)
same,GI50,[11],> 100 µM (inactive)
same,GI50,[12],> 100 µM (inactive)
same,GI50,[13],57.8 µM (inactive)
same,GI50,[14],> 100 µM
same,GI50,[15],> 100 µM (inactive)
same,GI50,[16],> 100 µM (inactive)
same,GI50,[17],> 100 µM (inactive)
same,GI50,[18],> 100 µM (inactive)
same,GI50,[19],> 100 µM (inactive)
same,GI50,[20],> 100 µM (inactive)
same,GI50,[21],> 100 µM (inactive)
same,GI50,[22],> 100 µM (inactive)
same,GI50,[23],> 100 µM (inactive)
same,GI50,[24],> 100 µM (inactive)
same,GI50,[25],49 µM (inactive)
same,GI50,[26],> 100 µM (inactive)
same,GI50,[27],> 100 µM (inactive)
same,GI50,[28],> 100 µM (inactive)
same,GI50,[29],> 100 µM (inactive)
same,GI50,[30],> 100 µM (inactive)
same,GI50,[31],> 100 µM (inactive)
same,GI50,[32],> 100 µM (inactive)
same,GI50,[33],> 100 µM (inactive)
same,GI50,[34],> 100 µM (inactive)
same,GI50,[35],39.5 µM (inactive)
same,GI50,[36],> 100 µM (inactive)
same,GI50,[37],> 100 µM (inactive)
same,GI50,[38],> 100 µM (inactive)
same,GI50,[39],> 100 µM (inactive)
same,GI50,[40],> 100 µM (inactive)
same,GI50,[41],> 100 µM (inactive)
same,GI50,[42],> 100 µM (inactive)
same,GI50,[43],43.9 µM (inactive)
same,GI50,[44],> 100 µM (inactive)
same,GI50,[45],> 100 µM (inactive)
same,GI50,[46],79.4 µM (inactive)
same,GI50,[47],> 100 µM (inactive)
same,GI50,[48],> 100 µM (inactive)
same,GI50,[49],66.5 µM (inactive)
same,GI50,[50],> 100 µM (inactive)
same,GI50,[51],> 100 µM (inactive)
same,GI50,[52],> 100 µM (inactive)
same,GI50,[53],> 100 µM (inactive)
same,GI50,[54],> 100 µM (inactive)
same,GI50,[55],> 100 µM (inactive)
same,GI50,[56],47.6 µM (inactive)
same,GI50,[57],22.3 µM (inactive)
